Measured values as given in patent US8759535B2, “Substituted fused imidazole derivatives, pharmaceutical compositions, and methods of use thereof” (High Point Pharmaceuticals, LLC, priority 2010, dated 2014).
Where a name gives a salt, the structure may show the parent alone.

Test system: HMOX1
Assay: HMOX1 Protein Assay (immunostaining of HO-1 in NHLF cells, GE InCell 1000)
Assay type: cell-based
Details: Homo sapiens, fold change above DMSO treated cells, 16 h; for fold induction at 5 µM: 5 μM compound; for fold induction at 3 µM: 3 μM compound (asterisk)
Summary of the method: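 NHLF cells seeded overnight in FGM-2, then exposed to compound or DMSO vehicle for 16 h, fixed, and immunostained for HO-1 with Hoechst nuclear counterstain; imaged on InCell 1000. Values are fold change over DMSO-treated cells, generally at 5 μM (0.8% DMSO), with asterisked entries at 3 μM.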

Cn1c(Nc2nc3ccc(OC(F)(F)F)cc3s2)nc2cc(C(=O)NCC(=O)N3CCC(C(N)=O)CC3)ccc21 [Example 451, 1-Methyl-2-(6-trifluoromethoxy-benzothiazol-2-ylamino)-1H-benzoimidazole-5-carboxylic acid [2-(4-carbamoyl-piperidin-1-yl)-2-oxo-ethyl]-amide]
fold induction at 5 µM: 51.3

Cn1c(Nc2nc3ccc(OC(F)(F)F)cc3s2)nc2cc(C(=O)NCC(=O)N3CCC(Oc4ncccn4)CC3)ccc21 [Example 452, 1-Methyl-2-(6-trifluoromethoxy-benzothiazol-2-ylamino)-1H-benzoimidazole-5-carboxylic acid {2-oxo-2-[4-(pyrimidin-2-yloxy)-piperidin-1-yl]-ethyl}-amide]
fold induction at 5 µM: 71.7

CNC1CCN(C(=O)CNC(=O)c2ccc3c(c2)nc(Nc2nc4ccc(OC(F)(F)F)cc4s2)n3C)CC1 [Example 453, 1-Methyl-2-(6-trifluoromethoxy-benzothiazol-2-ylamino)-1H-benzoimidazole-5-carboxylic acid [2-(4-methylamino-piperidin-1-yl)-2-oxo-ethyl]-amide hydrochloride]
fold induction at 5 µM: 81.1

CNC1CCN(C(=O)CNC(=O)c2ccc3c(c2)nc(Nc2nc4ccc(Cl)cc4s2)n3C)CC1 [Example 454, 2-(6-Chloro-benzothiazol-2-ylamino-1-methyl-1H-benzoimidazole-5-carboxylic acid [2-(4-methylamino-piperidin-1-yl)-2-oxo-ethyl]-amide hydrochloride]
fold induction at 5 µM: 62.2

CN(C)C1CCN(C(=O)CNC(=O)c2ccc3c(c2)nc(Nc2nc4ccc(OC(F)(F)F)cc4s2)n3C)CC1 [Example 455, 1-Methyl-2-(6-trifluoromethoxy-benzothiazol-2-ylamino)-1H-benzoimidazole-5-carboxylic acid [2-(4-dimethylamino-piperidin-1-yl)-2-oxo-ethyl]-amide]
fold induction at 5 µM: 80.4

CN(C)C1CCN(C(=O)CNC(=O)c2ccc3c(c2)nc(Nc2nc4ccc(Cl)cc4s2)n3C)CC1 [Example 456, 2-(6-Chloro-benzothiazol-2-ylamino)-1-methyl-1H-benzoimidazole-5-carboxylic acid [2-(4-dimethylamino-piperidin-1-yl)-2-oxo-ethyl]-amide]
fold induction at 5 µM: 67.3

CNCC1CCN(C(=O)CNC(=O)c2ccc3c(c2)nc(Nc2nc4ccc(Cl)cc4s2)n3C)CC1 [Example 457, 2-(6-Chloro-benzothiazol-2-ylamino)-1-methyl-1H-benzoimidazole-5-carboxylic acid [2-(4-methylaminomethyl-piperidin-1-yl)-2-oxo-ethyl]-amide hydrochloride]
fold induction at 5 µM: 39.9

CN(C)CC1CCN(C(=O)CNC(=O)c2ccc3c(c2)nc(Nc2nc4ccc(OC(F)(F)F)cc4s2)n3C)CC1 [Example 458, 1-Methyl-2-(6-trifluoromethoxy-benzothiazol-2-ylamino)-1H-benzoimidazole-5-carboxylic acid [2-(4-dimethylaminomethyl-piperidin-1-yl)-2-oxo-ethyl]-amide]
fold induction at 5 µM: 68.5

CN(C)CC1CCN(C(=O)CNC(=O)c2ccc3c(c2)nc(Nc2nc4ccc(Cl)cc4s2)n3C)CC1 [Example 459, 2-(6-Chloro-benzothiazol-2-ylamino)-1-methyl-1H-benzoimidazole-5-carboxylic acid [2-(4-dimethylaminomethyl-piperidin-1-yl)-2-oxo-ethyl]-amide]
fold induction at 5 µM: 42

CNCC1CCCN(C(=O)CNC(=O)c2ccc3c(c2)nc(Nc2nc4ccc(Cl)cc4s2)n3C)C1 (stereo not shown) [Example 460, 2-(6-Chloro-benzothiazol-2-ylamino)-1-methyl-1H-benzoimidazole-5-carboxylic acid [2-(3-methylaminomethyl-piperidin-1-yl)-2-oxo-ethyl]-amid hydrochloride]
fold induction at 5 µM: 27.5

CN(C)CC1CCCN(C(=O)CNC(=O)c2ccc3c(c2)nc(Nc2nc4ccc(Cl)cc4s2)n3C)C1 (stereo not shown) [Example 461, 2-(6-Chloro-benzothiazol-2-ylamino)-1-methyl-1H-benzoimidazole-5-carboxylic acid [2-(3-dimethylaminomethyl-piperidin-1-yl)-2-oxo-ethyl]-amide]
fold induction at 5 µM: 27.1

C[C@H](NC(=O)c1ccc2c(c1)nc(Nc1nc3ccc(Cl)cc3s1)n2C)C(=O)N(C)C [Example 462, 2-(6-Chloro-benzothiazol-2-ylamino)-1-methyl-1H-benzoimidazole-5-carboxylic acid ((S)-1-dimethylcarbamoyl-ethyl)-amide]
fold induction at 3 µM: 20

C[C@H](NC(=O)c1ccc2c(c1)nc(Nc1nc3ccc(C(F)(F)F)cc3s1)n2C)C(=O)N(C)C [Example 463, 1-Methyl-2-(6-trifluoromethyl-benzothiazol-2-ylamino)-1H-benzoimidazole-5-carboxylic acid ((S)-1-dimethylcarbamoyl-ethyl)-amide]
fold induction at 3 µM: 26.7

C[C@H](NC(=O)c1ccc2c(c1)nc(Nc1nc3ccc(Cl)cc3s1)n2C)C(=O)N1CCN(C)CC1 [Example 464, 2-(6-Chloro-benzothiazol-2-ylamino)-1-methyl-1H-benzoimidazole-5-carboxylic acid [(S)-1-methyl-2-(4-methyl-piperazin-1-yl)-2-oxo-ethyl]-amide]
fold induction at 3 µM: 27.2

C[C@H](NC(=O)c1ccc2c(c1)nc(Nc1nc3ccc(Cl)cc3s1)n2C)C(=O)N1CCOCC1 [Example 465, 2-(6-Chloro-benzothiazol-2-ylamino)-1-methyl-1H-benzoimidazole-5-carboxylic acid ((S)-1-methyl-2-morpholin-4-yl-2-oxo-ethyl)-amide]
fold induction at 3 µM: 20.4

C[C@H](NC(=O)c1ccc2c(c1)nc(Nc1nc3ccc(C(F)(F)F)cc3s1)n2C)C(=O)N1CCOCC1 [Example 466, 1-Methyl-2-(6-trifluoromethyl-benzothiazol-2-ylamino)-1H-benzoimidazole-5-carboxylic acid ((S)-1-methyl-2-morpholin-4-yl-2-oxo-ethyl)-amide]
fold induction at 3 µM: 22.4

C[C@@H](NC(=O)c1ccc2c(c1)nc(Nc1nc3ccc(Cl)cc3s1)n2C)C(=O)N(C)C [Example 467, 2-(6-Chloro-benzothiazol-2-ylamino)-1-methyl-1H-benzoimidazole-5-carboxylic acid ((R)-1-dimethylcarbamoyl-ethyl)-amide]
fold induction at 3 µM: 22.3

C[C@@H](NC(=O)c1ccc2c(c1)nc(Nc1nc3ccc(C(F)(F)F)cc3s1)n2C)C(=O)N(C)C [Example 468, 1-Methyl-2-(6-trifluoromethyl-benzothiazol-2-ylamino)-1H-benzoimidazole-5-carboxylic acid ((R)-1-dimethylcarbamoyl-ethyl)-amide]
fold induction at 3 µM: 26.3

C[C@@H](NC(=O)c1ccc2c(c1)nc(Nc1nc3ccc(Cl)cc3s1)n2C)C(=O)N1CCN(C)CC1 [Example 469, 2-(6-Chloro-benzothiazol-2-ylamino)-1-methyl-1H-benzoimidazole-5-carboxylic acid [(R)-1-methyl-2-(4-methyl-piperazin-1-yl)-2-oxo-ethyl]-amide]
fold induction at 3 µM: 26.1

C[C@@H](NC(=O)c1ccc2c(c1)nc(Nc1nc3ccc(C(F)(F)F)cc3s1)n2C)C(=O)N1CCN(C)CC1 [Example 470, 1-Methyl-2-(6-trifluoromethyl-benzothiazol-2-ylamino)-1H-benzoimidazole-5-carboxylic acid [(R)-1-methyl-2-(4-methyl-piperazin-1-yl)-2-oxo-ethyl]-amide]
fold induction at 3 µM: 24.5

C[C@@H](NC(=O)c1ccc2c(c1)nc(Nc1nc3ccc(Cl)cc3s1)n2C)C(=O)N1CCOCC1 [Example 471, 2-(6-Chloro-benzothiazol-2-ylamino)-1-methyl-1H-benzoimidazole-5-carboxylic acid ((R)-1-methyl-2-morpholin-4-yl-2-oxo-ethyl)-amide]
fold induction at 3 µM: 17.4

C[C@@H](NC(=O)c1ccc2c(c1)nc(Nc1nc3ccc(C(F)(F)F)cc3s1)n2C)C(=O)N1CCOCC1 [Example 472, 1-Methyl-2-(6-trifluoromethyl-benzothiazol-2-ylamino)-1H-benzoimidazole-5-carboxylic acid ((R)-1-methyl-2-morpholin-4-yl-2-oxo-ethyl)-amide]
fold induction at 3 µM: 23
